Active and inactive are the calls of the source.
Legend:
H4 = assay: Luminescence Cell-Based Dose Response HTS to Identify Activators of 5'UTR Stem-Loop Driven Prion Protein mRNA Translation in H4 Neuroglioblastoma Cells. [Related pubchem assays: 1829 (Project Summary), 1814 (Primary HTS)]; type: functional; conditions: Homo sapiens
[1] = Luminescence Cell-Based Dose Response HTS to Identify Activators of Luciferase Translation or Activity in H4 […] Cells. [Related pubchem assays: 1829 (Project Summary), 1814 (Primary HTS)]; type: functional
[2] = Luminescence Cell-Based Dose Confirmation HTS to Identify Activators of 5'UTR Stem-Loop Driven Alpha-Synuclein mRNA Translation in H4 Neuroglioblastoma Cells. [Related pubchem assays: 1829 (Project Summary), 1814 (Primary HTS)]; type: functional
[3] = biological target: T1, Polyadenylate-binding protein 1 (Homo sapiens, UniProt P11940); assay: PABP1 MLLE–PAM2 interaction inhibitors, dose response, miRNA deadenylation inhibitor project, biochemical, fluorescence polarization, Cy5-PAM2 peptide, secondary (AID 602260); type: functional; conditions: read-out: IC50_Mean
T1 sequence (P11940 whole entry): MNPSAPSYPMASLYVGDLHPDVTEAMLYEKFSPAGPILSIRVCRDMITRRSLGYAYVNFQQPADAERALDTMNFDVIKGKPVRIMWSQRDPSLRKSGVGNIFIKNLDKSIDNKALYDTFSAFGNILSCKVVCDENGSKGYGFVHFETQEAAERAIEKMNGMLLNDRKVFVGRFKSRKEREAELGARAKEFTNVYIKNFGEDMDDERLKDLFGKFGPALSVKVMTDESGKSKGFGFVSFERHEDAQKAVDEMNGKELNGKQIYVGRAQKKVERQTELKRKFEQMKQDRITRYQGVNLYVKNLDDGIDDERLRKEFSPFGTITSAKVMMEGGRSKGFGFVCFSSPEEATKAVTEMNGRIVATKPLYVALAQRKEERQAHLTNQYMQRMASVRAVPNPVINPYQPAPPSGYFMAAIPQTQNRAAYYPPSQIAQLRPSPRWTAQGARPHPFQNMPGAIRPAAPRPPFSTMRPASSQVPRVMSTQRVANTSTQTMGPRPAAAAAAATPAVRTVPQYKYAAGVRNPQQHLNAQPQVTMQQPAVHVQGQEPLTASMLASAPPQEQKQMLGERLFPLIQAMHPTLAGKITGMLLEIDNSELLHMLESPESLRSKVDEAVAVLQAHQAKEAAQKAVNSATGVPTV

[4] = biological target: T1, Polyadenylate-binding protein 1; assay: PABP1 MLLE–PAM2 binding inhibitor potency, dose response, biochemical, fluorescence polarization, FITC-PAM2 peptide (AID 602259); type: functional; conditions: read-out: IC50_Mean
[5] = biological target: T2, Corticotropin-releasing factor receptor 2/Corticotropin-releasing factor-binding protein (Homo sapiens, UniProt P24387+Q13324); assay: Dose Response confirmation of uHTS hits for small molecule antagonists of the CRF-binding protein and CRF-R2 receptor complex.; type: functional; conditions: read-out: IC50_Mean
T2 sequence (Q13324 whole entry): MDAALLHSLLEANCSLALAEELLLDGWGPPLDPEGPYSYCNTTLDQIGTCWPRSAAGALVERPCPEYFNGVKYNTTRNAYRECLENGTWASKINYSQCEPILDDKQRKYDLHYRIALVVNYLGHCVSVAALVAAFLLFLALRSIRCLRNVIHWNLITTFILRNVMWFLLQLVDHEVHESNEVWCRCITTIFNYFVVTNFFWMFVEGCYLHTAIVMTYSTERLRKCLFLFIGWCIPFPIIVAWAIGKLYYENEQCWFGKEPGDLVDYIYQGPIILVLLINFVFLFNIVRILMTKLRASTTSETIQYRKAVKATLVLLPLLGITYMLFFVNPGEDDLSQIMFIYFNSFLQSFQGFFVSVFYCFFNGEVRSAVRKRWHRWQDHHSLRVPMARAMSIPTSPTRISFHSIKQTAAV
T2 sequence (P24387 whole entry): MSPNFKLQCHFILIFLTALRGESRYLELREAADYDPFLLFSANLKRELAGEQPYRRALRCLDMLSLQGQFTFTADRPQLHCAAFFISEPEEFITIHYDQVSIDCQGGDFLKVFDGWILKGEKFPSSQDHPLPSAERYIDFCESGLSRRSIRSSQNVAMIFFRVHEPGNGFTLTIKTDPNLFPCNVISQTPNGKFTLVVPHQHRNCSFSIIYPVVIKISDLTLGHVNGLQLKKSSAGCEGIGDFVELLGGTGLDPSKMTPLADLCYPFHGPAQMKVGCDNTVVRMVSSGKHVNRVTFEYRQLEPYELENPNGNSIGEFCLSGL

[6] = biological target: T2, Corticotropin-releasing factor receptor 2/Corticotropin-releasing factor-binding protein; assay: activators of CRF receptor 2 with binding protein – uHTS hits, confirmation (AID 602473); type: functional; conditions: read-out: EC50_Mean
H9c2 = assay: cells; type: functional, cell-based; conditions: Rattus norvegicus, H9c2, Myocardium;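 note: confirmatory concentration-response retest of ultra-high-throughput screening hits for modulation of myocardial damage; cell death induced by hydrogen peroxide oxidative stress; compound pretreatment for 60 min then peroxide exposure for 2 h; potency is for protecting the cells against peroxide damage rather than for killing them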
Protein RecA = biological target: T3, Protein RecA (Mycobacterium tuberculosis, UniProt P9WHJ3); assay: Fluorescence Cell-Free Homogeneous Dose Retest to Identify Inhibitors of RecA-Intein Splicing Activity. [Related pubchem assays (depositor defined):AID2097, AID2223, AID489010, AID492950]; type: functional
T3 sequence (P9WHJ3 whole entry): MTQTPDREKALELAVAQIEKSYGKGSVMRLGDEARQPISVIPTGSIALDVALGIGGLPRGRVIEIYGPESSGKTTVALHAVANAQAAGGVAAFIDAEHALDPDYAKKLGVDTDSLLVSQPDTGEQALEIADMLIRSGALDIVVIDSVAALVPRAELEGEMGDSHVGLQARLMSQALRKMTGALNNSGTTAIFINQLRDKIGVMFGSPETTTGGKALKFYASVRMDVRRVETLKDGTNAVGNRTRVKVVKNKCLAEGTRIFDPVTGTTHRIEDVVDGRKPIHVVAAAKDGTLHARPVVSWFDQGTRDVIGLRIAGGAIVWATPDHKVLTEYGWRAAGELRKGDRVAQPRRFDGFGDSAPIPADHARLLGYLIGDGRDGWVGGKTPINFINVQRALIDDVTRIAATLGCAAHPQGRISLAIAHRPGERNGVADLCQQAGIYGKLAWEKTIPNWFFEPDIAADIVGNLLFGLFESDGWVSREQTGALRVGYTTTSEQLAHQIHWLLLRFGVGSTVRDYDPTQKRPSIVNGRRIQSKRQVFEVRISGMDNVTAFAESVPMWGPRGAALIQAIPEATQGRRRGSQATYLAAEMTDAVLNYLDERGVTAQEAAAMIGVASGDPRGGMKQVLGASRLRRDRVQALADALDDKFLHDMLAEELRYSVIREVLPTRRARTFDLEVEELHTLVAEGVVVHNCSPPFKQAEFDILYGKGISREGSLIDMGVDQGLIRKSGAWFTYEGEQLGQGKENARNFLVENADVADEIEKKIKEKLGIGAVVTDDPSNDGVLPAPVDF

[7] = biological target: T4, Heat shock factor protein 1 (Mus musculus, UniProt P38532); assay: HSF1 potentiators in luciferase reporter cells, confirmation, cell-based, NIH3T3, luminescence, dose retest (AID 435004); type: functional;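 note: stress induced by proteasome inhibitor MG132 added 30 min after compound; luciferase reporter driven by HSF1 response element in NIH3T3 cells; actives raise luminescence as potentiators of the MG132 stress response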
T4 sequence (P38532 whole entry): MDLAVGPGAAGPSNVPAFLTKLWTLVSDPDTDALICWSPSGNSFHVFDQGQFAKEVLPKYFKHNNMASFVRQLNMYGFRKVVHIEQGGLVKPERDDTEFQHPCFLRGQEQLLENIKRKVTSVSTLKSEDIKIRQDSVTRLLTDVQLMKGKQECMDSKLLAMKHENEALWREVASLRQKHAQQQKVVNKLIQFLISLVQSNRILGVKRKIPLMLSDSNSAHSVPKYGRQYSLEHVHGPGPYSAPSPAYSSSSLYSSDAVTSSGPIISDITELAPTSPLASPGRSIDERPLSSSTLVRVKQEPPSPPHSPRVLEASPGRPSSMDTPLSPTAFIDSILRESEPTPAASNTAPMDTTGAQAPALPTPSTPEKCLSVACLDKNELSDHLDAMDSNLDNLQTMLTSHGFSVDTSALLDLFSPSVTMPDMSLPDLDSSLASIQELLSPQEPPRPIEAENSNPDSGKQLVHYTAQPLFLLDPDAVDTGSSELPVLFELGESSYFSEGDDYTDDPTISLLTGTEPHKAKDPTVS

Paired box protein Pax-8 = Paired box protein Pax-8 (Homo sapiens, UniProt Q06710); assay: inhibitors of PAX8-driven TPO luciferase reporter, dose response, RMG-I cells, cherry-pick (AID 687027); type: functional, cell-based;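 note: luciferase reporter driven by Pax8 target thyroperoxidase promoter measured by SteadyGlo luminescence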
Sequence of Paired box protein Pax-8 (Q06710 whole entry): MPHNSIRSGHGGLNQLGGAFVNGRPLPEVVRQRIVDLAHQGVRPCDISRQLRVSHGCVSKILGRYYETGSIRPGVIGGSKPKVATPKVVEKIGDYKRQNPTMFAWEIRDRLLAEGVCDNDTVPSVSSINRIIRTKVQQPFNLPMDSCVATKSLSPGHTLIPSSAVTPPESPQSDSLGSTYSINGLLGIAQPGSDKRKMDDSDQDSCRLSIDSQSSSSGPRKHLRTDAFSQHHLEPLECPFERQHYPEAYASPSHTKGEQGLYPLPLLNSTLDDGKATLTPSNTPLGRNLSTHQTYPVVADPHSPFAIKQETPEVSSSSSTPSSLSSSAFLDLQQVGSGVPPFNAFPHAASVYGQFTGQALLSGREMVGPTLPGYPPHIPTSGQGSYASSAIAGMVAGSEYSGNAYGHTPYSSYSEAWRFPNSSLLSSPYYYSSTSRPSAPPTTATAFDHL

Fc1ccc(N2Cc3ccsc3C=N2)cc1
EC50 (H4): > 120 µM (not active) | EC50 [1]: 23.9 µM (active) | EC50 [2]: 37.1 µM (active)

CCOC(=O)c1sc(=S)n(C)c1NC(=O)c1ccccc1Cl
IC50 [3]: > 66 µM (inactive) | IC50 [4]: > 66 µM (inactive)

Cc1ccc2nc(N3C(=O)C(O)=C(C(=O)c4ccc(C)o4)C3c3cccc(O)c3)sc2c1 (stereo unspecified)
IC50 [5]: 7.83 µM (active) | EC50 [6]: > 53 µM (inactive)

C#CCNC(=O)C1=C[C@H](c2ccc3c(c2)OCO3)[C@@H](CCCO)[C@H](OCC)O1
IC50 [5]: > 47.1 µM (inactive) | EC50 [6]: > 53 µM (inactive)

CC1(C)CC2=NC(SCC(N)=O)=C(C#N)C3(CCCCC3)C2=C(O)C1
IC50 [3]: > 66 µM (inactive) | IC50 [4]: > 66 µM (inactive)

c1coc(CSc2ncnc3c2oc2ccccc23)c1
EC50 (H4): 6.38 µM (active) | EC50 [1]: 4.94 µM (active) | EC50 [2]: 3.52 µM (active)

Cn1c(SCC(=O)c2ccc3c(c2)OCCO3)nnc1C(F)(F)F
IC50 [5]: > 47.1 µM (inactive) | EC50 [6]: > 53 µM (inactive)

O=c1ccc2cc(S(=O)(=O)NCc3ccccc3)ccc2[nH]1
IC50 [5]: > 47.1 µM (inactive) | EC50 [6]: > 53 µM (inactive)

c1ccc(-c2noc(C34CC5CC(CC(C5)C3)C4)n2)nc1
EC50 (H4): 48 µM (active) | EC50 [1]: 30.3 µM (active) | EC50 [2]: 0.122 µM (active)

CC(=O)c1ccc(N2CCN(C(=O)CCS(=O)(=O)c3ccc4c(c3)CCN4C(C)=O)CC2)cc1
IC50 [5]: > 47.1 µM (inactive) | EC50 [6]: > 53 µM (inactive)

COc1ccccc1C(=O)NC(CCSC)C(=O)NC1CCCCCC1 (stereo unspecified)
IC50 [5]: > 47.1 µM (inactive) | EC50 [6]: > 53 µM (inactive)

Cc1ccc(C(=O)CSc2nc(O)c3ccccc3n2)cc1
IC50 (H9c2): > 79 µM (inactive)

COc1ccc(OC)c(NC(=O)CSC2=NCCS2)c1
IC50 [3]: > 66 µM (inactive) | IC50 [4]: > 66 µM (inactive)

CCC(=O)Nc1ccc(-c2ccc(N3CCN(C)CC3)nn2)cc1
EC50 (H4): 19.2 µM (active) | EC50 [1]: 15.5 µM (active) | EC50 [2]: > 120 µM (not active)

Cc1cccc(C)c1N=C(S)Nc1ccc(Cl)c(Cl)c1
IC50 [3]: > 66 µM (inactive) | IC50 [4]: > 66 µM (inactive)

Cc1cc2cc(CNC(=O)c3ccc(Br)o3)ccc2n1C
IC50 [3]: > 66 µM (inactive) | IC50 [4]: > 66 µM (inactive)

O=C(/C=C/c1ccco1)N1CCN(c2ncccn2)CC1
IC50 [3]: > 66 µM (inactive) | IC50 [4]: > 66 µM (inactive)

O=C1NC2=C(C(=O)CCC2)C(c2ccccc2[N+](=O)[O-])N1 (stereo unspecified)
IC50 [3]: > 66 µM (inactive) | IC50 [4]: > 66 µM (inactive)

CCCC1c2ccc(C)n2CCN1C(=O)Nc1ccccc1Cl (stereo unspecified)
EC50 (H4): > 120 µM (not active) | EC50 [1]: 14.2 µM (active) | EC50 [2]: 23 µM (active)

CCCCCCCOC(=O)c1ccc(OC(=O)c2cccnc2)cc1
EC50 (Protein RecA): > 380 µM (inconclusive)

COc1ccc(CCNc2nc(-c3cccnc3)nc3ccccc23)cc1OC
IC50 (H9c2): > 79 µM (inactive)

O=C(Nc1ccc(C(=O)N2CCOCC2)cc1)c1cnn2c(C(F)F)cc(-c3ccccc3)nc12
EC50 [7]: > 260 µM (inactive) | IC50 (H9c2): > 79 µM (inactive)

O=c1c(-c2ccc3c(c2)OCCO3)coc2c(CN3CCOCC3)c(O)ccc12
EC50 (H4): > 120 µM (not active) | EC50 [1]: 17.7 µM (active) | EC50 [2]: 42.3 µM (active)

O=C(COC(=O)Cn1[nH]c(=O)c2ccccc2c1=O)NNC(=O)c1ccccc1
IC50 (H9c2): > 79 µM (inactive)

O=C(NNC(=S)Nc1ccc(Br)cc1Cl)c1ccncc1
IC50 [3]: > 66 µM (inactive) | IC50 [4]: > 66 µM (inactive)

Cc1cc2c(NS(=O)(=O)c3ccc(F)cc3)cccc2nn1
IC50 [5]: > 47.1 µM (inactive) | EC50 [6]: > 53 µM (inactive)

O=C(C[C@H]1C/C=C\CC[C@H](Cc2ccc(F)cc2)C(=O)O[C@H](c2ccccc2)CNC1=O)N[C@H](CO)Cc1ccccc1
IC50 (H9c2): 25.3 µM (active)

COc1ccc(S(=O)(=O)N(C)C[C@H]2Oc3ccc(NC(=O)Nc4ccc(C(F)(F)F)cc4)cc3C(=O)N([C@H](C)CO)C[C@@H]2C)cc1
AC50 (Paired box protein Pax-8): 8.69 µM (active)

O=C(Nc1ccccc1)c1nc[nH]c1C(=O)NCCN(CCNC(=O)c1[nH]cnc1C(=O)Nc1ccccc1)CCNC(=O)c1[nH]cnc1C(=O)Nc1ccccc1
IC50 [5]: > 47.1 µM (inactive) | EC50 [6]: > 53 µM (inactive)

Cc1ccc(C)c(C(=O)COC(=O)Cn2[nH]c(=O)c3ccccc3c2=O)c1
IC50 (H9c2): 63.5 µM (inactive)

Cc1cc(NC(=O)COC(=O)Cn2[nH]c(=O)c3ccccc3c2=O)c([N+](=O)[O-])cc1C
IC50 (H9c2): 31.7 µM (inactive)

CCOc1ccc(C(=O)NNC(=O)CCNC(=O)c2ccco2)cc1OC
IC50 [5]: > 47.1 µM (inactive) | EC50 [6]: > 53 µM (inactive)

COc1cc(/C=N/NC(=O)c2ccncc2)ccc1OC(=O)c1ccccc1Cl
IC50 (H9c2): > 79 µM (inactive)

CCOC(=O)c1ccc(-c2ccc3ncnc(NCc4csc(C)n4)c3c2)o1
IC50 (H9c2): > 79 µM (inactive)

C[C@H](CO)N1C[C@H](C)[C@H](CN(C)S(=O)(=O)c2ccc(Cl)cc2)OCCCC[C@H](C)Oc2ccc(NS(=O)(=O)c3ccc(F)cc3)cc2C1=O
AC50 (Paired box protein Pax-8): 9.43 µM (active)

C[C@@H]1CCCCO[C@@H](CN(C)Cc2ccc(Cl)c(Cl)c2)[C@H](C)CN([C@H](C)CO)C(=O)c2cc(NC(=O)Nc3ccccc3)ccc2O1
AC50 (Paired box protein Pax-8): 12.5 µM (active)

From ChEMBL document CHEMBL1201862, “PubChem BioAssay data set” (2004)
